Experimental findings from patent US9394250B2, “Substituted pyrrolidines as factor xia inhibitors for the treatment thromboembolic diseases” (ONO PHARMACEUTICAL CO., LTD., priority 2012, dated 2016) are described below.

Format in all cases: biochemical
One assay concerns the target Human Factor Xa (Homo sapiens (Human), UniProt P00742). Description: Factor Xa enzyme activity, chromogenic substrate S-2222. Conditions: human Factor Xa 0.18 U/mL, 300 μM S-2222, pH7.4; read-out: In vitro FXa inhibitory activity IC50. The procedure:
(§1) Inhibitory activities of compounds of the present invention against factor XIa, Xa, XIIa, IXa, VIIa, plasma kallikrein or thrombin were evaluated using appropriate purified proteases and synthetic substrates. The rate of hydrolysis of the chromogenic substrate by the relevant protease was continuously measured at 405 nm. Inhibitory activity against each enzyme was calculated as % inhibition using the equation described below. % Inhibition=[[(rate without compound)−(rate with compound)]/(rate without compound)]×100%. Each half maximal inhibitory concentration (IC50) value was determined by plotting the concentration of compound of the invention against the % inhibition. (1-1) Factor XIa Enzyme Activity
(§2) Human Factor Xa (American Diagnostica Inc.) and human thrombin (Sigma) activities were measured at the enzyme concentrations of 0.18 U/mL and 0.12 U/mL, respectively in the same buffer containing 150 mM NaCl, 2 mg/mL PEG6000, 50 mM Tris-HCl (pH7.4), except that the reactions were started with 300 μM S-2222 ([…], Chromogenix) and 300 μM S-2366, respectively.

A further assay deals with human thrombin (Homo sapiens (Human), UniProt P00734). Kind of assay: Thrombin enzyme activity, chromogenic substrate S-2366. Conditions: human thrombin 0.12 U/mL, 300 μM S-2366, pH7.4; read-out: In vitro Thrombin inhibitory activity IC50. The method, then: as §1, §2
In another assay the target is Human Factor XIa (Homo sapiens (Human), UniProt P03951). Kind of assay: Factor XIa enzyme activity, chromogenic substrate S-2366. To be noted: purified human Factor XIa 0.1 U/mL, 300 μM S-2366, pH7.4; read-out: In vitro FXIa inhibitory activity IC50. The method, then:
as §1
Human Factor XIa (Haematologic Technologies Inc.) activity was measured at an enzyme concentration of 0.1 U/mL in 150 mM NaCl, 5 mM KCl, 1 mg/mL PEG6000, 50 mM HEPES-NaOH (pH7.4) with 300 μM S-2366 (pyroGlu-Pro-Arg-pNA, Chromogenix).

Structures can show the parent of a compound that is named as a salt.

Sequence of Human Factor Xa (P00742 235-488): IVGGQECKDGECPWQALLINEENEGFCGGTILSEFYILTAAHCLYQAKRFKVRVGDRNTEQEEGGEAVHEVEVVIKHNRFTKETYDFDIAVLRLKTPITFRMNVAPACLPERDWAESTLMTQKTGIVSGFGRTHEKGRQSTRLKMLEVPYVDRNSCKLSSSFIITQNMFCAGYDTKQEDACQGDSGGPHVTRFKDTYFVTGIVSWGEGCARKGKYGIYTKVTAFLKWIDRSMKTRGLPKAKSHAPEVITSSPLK
Sequence of Human Factor Xa (P00742 41-179 partner): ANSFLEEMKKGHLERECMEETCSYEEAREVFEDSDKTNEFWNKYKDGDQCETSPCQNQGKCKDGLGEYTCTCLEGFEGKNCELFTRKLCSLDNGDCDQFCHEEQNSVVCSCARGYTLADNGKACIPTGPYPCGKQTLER
Sequence of Human Factor XIa (P03951 388-625): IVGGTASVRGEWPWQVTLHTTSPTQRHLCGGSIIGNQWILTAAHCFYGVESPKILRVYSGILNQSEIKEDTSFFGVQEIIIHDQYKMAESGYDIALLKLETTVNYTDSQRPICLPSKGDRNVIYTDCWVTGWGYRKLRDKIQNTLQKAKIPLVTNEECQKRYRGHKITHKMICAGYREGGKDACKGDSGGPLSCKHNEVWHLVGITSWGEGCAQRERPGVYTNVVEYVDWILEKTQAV
Sequence of Human Factor XIa (P03951 19-387 partner): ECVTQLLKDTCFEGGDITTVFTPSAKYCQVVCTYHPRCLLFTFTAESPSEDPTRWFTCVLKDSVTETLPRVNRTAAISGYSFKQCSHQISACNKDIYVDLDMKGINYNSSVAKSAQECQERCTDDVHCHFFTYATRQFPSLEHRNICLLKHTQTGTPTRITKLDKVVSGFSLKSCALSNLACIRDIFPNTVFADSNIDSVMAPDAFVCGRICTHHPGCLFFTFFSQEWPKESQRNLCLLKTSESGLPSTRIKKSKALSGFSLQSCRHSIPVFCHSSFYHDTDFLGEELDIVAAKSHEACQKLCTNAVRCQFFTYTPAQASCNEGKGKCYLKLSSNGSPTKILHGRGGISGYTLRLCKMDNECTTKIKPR

As to `COC(=O)Nc1ccc(-c2cnc([C@@H]3C[C@H](C4CCN(S(C)(=O)=O)CC4)CN3C(=O)c3ccc(C(=N)N)cc3)[nH]2)cc1` [Example 73, methyl [4-(2-{(2S,4R)-1-(4-carbamimidoylbenzoyl)-4-[1-(methylsulfonyl)-4-piperidinyl]-2-pyrrolidinyl}-1H-imidazol-5-yl)phenyl]carbamate dihydrochloride], the IC50 on Human Factor Xa was over 100 µM; at human thrombin, 37 µM; at Human Factor XIa it was 0.0044 µM.

With `NC[C@H]1CC[C@H](C(=O)N2C[C@@H](N3CCN(S(=O)(=O)C4CC4)CC3)C[C@H]2C(=O)Nc2ccc(C(=O)O)cc2)CC1` [Example 55, 4-[({(2S,4S)-1-{[trans-4-(aminomethyl)cyclohexyl]carbonyl}-4-[4-(cyclopropylsulfonyl)-1-piperazinyl]-2-pyrrolidinyl}carbonyl)amino]benzoic acid bis(trifluoroacetate)], the IC50 at Human Factor Xa is over 100 µM; on human thrombin, over 100 µM; at Human Factor XIa, 0.014 µM.
